Assay results as given in US20190142860A1, “NUCLEIC ACID BASED TIA-1 INHIBITORS” (Aquinnah Pharmaceuticals, Inc., priority 2015, published 2019).
“Also recorded” adds a separate entry of the source. One block for each compound: values may come before it. Residues, ends and D or L forms follow the SMILES beside them. *: point of attachment. Cbz = O=C(OCc1ccccc1)*

Tests used:
[1] = system: tau-induced TIA1+ SGs in HT22 cells; assay: PKR / PERK inhibitors on tau-mediated SG formation; type: cell-based, mouse; conditions: TIA1 ± WT tau, 24 hrs, C16 1 μM, GSK2606414 50 nM
Method: The eukaryotic translation initiation factor eIF2α is regulated by phosphorylation. […] SGs were induced by transfection with TIA1±WT tau. After 24 hrs the cells were treated with inhibitors of PKR (C16, 1 μM, Sigma) or PERK (GSK2606414, 50 nM, EMD/Millipore), and then SG number was quantified after 24 hrs.

[2] = system: tau; assay: Tau levels with TIA1 over-expression under proteasome or autophagy inhibition, immunoblot in HT22 cells; type: cell-based, mouse; conditions: overnight, MG132 5 μM, chloroquine 50 μM
Method: Immunoblots were preformed using gradient PAGE on a 15-well 4-12% Bis-Tris gel (Invitrogen). Blocking was done in 5% milk for lhr at RT. Primary antibody incubation was at 4° C. overnight with 1:7,500 mouse monoclonal Tau13, 1:500 mouse monoclonal PHF1, 1:500 goat polyclonal TIA1 (Santa Cruz), 1:500 mouse monoclonal synaptophysin (Santa Cruz), 1:1,000 mouse monoclonal PSD-95 (NeuroMab), 1:1,000 rabbit polyclonal caspase-3 or cleaved caspase 3 (Cell Signaling), or 1:10,000 mouse monoclonal actin (Millipore) in PBS. Secondary antibody was incubated in 5% milk for 1 hr at RT. Developing was done using SuperSignal West Pico Substrate (Thermo).

[3] = system: granules positive for TIA1 and phospho-tau (P-S396/404, PHF1); assay: Tau kinase inhibitor study: TIA1+ SGs and PHF1+ tau granules; type: cell-based, mouse; conditions: HT22 cells, TIA1 and WT tau, 24 hrs; for formation of granules positive for TIA1 and phospho-tau (SGs and tau granules): XXVI 20 μM, CDK2/5 inhibitor 5 μM, SB203580 20 μM, 39621 20 μM, PP2 20 nM
[4] = system: primary hippocampal neurons; assay: Dendrite length of primary hippocampal neurons (MAP2, NeuronJ); type: cell-based, mouse; conditions: Tau−/− and TIA1−/− neurons, WT or P301L tau ± TIA1, DIV21; puromycin 5 μg/ml, cycloheximide 10 μg/ml
Source text: SG density and dendritic processes were quantified using Image J (using ImageJ plug-ins NeuronJ, tracing MAP2 positive processes for dendritic measurements). Granule movement and formation was quantified using Bitplane Imaris Track software (Imaris).
Measurements of dendritic processes were done using ImageJ plug-ins NeuronJ. Using the software to trace MAP2 positive processes of individual cells yields a pixel measurement that can then be back calculated to micrometers using the microscope scaling parameters.

[5] = system: stress granules (SGs) in HT22 cells; assay: Stress granule / tau granule formation in HT22 cells expressing tau and TIA1; type: cell-based, mouse; conditions: for formation of tau granules: neuronal cell lines
Method: HT22 cells were transfected using Lipofectamine (Invitrogen), incubated 24 hours, and treated after 24 hrs (25 uM salubrinal, 5 μg/ml puromycin, 10 μg/ml cycloheximide). At 48 hours the cells were fixed in 4% PFA.
HT22 cells were maintained in DMEM (4.5 g glucose/L) media supplemented with 10% fetal bovine serum, lx PenStrep (Invitrogen), lx L-Glutamine (Invitrogen), and 1× non-essential amino acids. Cells were passaged twice a week 1:5. Cells were seeded on 18 mm poly-D-lysine coated coverslips in 12-well plates (75,000/coverslip) one day prior to transfection in […] media (DMEM, 10% FBS). Cells were transfected at 1:2 ratio DNA:Lipofectamine (Invitrogen), delivering 2 μg total DNA per well. Lipofectamine in OptiMEM (Invitrogen) is incubated for 5 min prior to the addition of the DNA/OptiMEM. The transfection mixture is then allowed to incubate for 20 min at room temperature prior to being added to the cells. 500 μL of media is removed and 500 μL of transfection mixture is added dropwise to each well. Cells were incubated 24 hours, after which the addition of 25 μM salubrinal may be added to half of the plates and allowed to incubate for 24 hours. At 48 hours post-transfection, the cells were fixed in 4% PFA and stored in PBS.
Granule count cells: SG density was quantified using Image J software by calculating the number of puncta […] per 63× frame controlled for the number of cells. This was done by thresholding images, and using the analyze particle functionality. Quantifications of granule counts and area in primary neurons was done in ImageJ by using a free-hand tool to outline the neuron, thresholding the image, creating a mask over the nucleus, and using the particle analyzer tool.

[6] = system: tau granules in primary hippocampal neurons; assay: Tau granules in dendrites of primary tau−/− hippocampal neurons; type: cell-based, mouse; conditions: WT or P301L tau ± TIA1, treated at DIV21, cycloheximide 10 μg/ml
Method: Primary hippocampal cultures were generated from P0 pups from C57Bl/6 WT, TIA1 −/−, or tau −/− mice. The hippocampus was dissected out in Hank's Balanced Salt Solution buffered with HEPES and PenStrep, and dissociated with 0.125% trypsin for 15 min at 37° C., followed by trituration. Dissociated cells were plated on plates of coverslips pre-coated with Poly-D lysine (100 μg/mL, Sigma). Neurons were grown for 21 days in Neurobasal medium supplemented with B-27 (Invitrogen)
At DIV3 neurons were transduced with AAV9-TIA1-mRFP or AAV9-mRFP virus (MOI 20). At DIV7 neurons were transduced with AAV1-WT tau-V5 or AAV1-P301L tau-V5 virus (MOI 20). Neurons were fixed for immunolabeling and confocal microscopy in 4% PFA, or lysed in via sonication in PBS with protease and phosphatase inhibitors.
Granule count neurons: Quantifications of granule counts and area in primary neurons was done in ImageJ by using a free-hand tool to outline the neuron, thresholding the image, creating a mask over the nucleus, and using the particle analyzer tool.

[7] = system: caspase-3; assay: Caspase cleavage (Caspase-Glo 3/7) in neurons co-transduced with TIA1 and tau; type: cell-based, mouse; conditions: salubrinal 25 μM
Method: Caspase 3/7 cleavage was quantified with the Caspase-Glo 3/7 Assay kit, Promega. Apoptosis detected DNA fragmentation (TiterTACS Colorimetric Apoptosis Detection kit, Trevigen).
Caspase 3/7 cleavage was quantified with the Caspase-Glo 3/7 Assay kit, Promega. Apoptosis was analyzed by quantifying DNA fragmentation (TiterTACS Colorimetric Apoptosis Detection kit, Trevigen).

[8] = biological target: Nucleolysin TIA-1 (endogenous mouse TIA1) (mouse) (UniProt P52912); assay: TIA1 IP-MS, tau KO 2 cortex
[9] = biological target: Nucleolysin TIA-1 (endogenous mouse TIA1) (mouse) (UniProt P52912); assay: TIA1 IP-MS, WT2 cortex
[10] = biological target: Nucleolysin TIA-1 (endogenous mouse TIA1) (mouse) (UniProt P52912); assay: TIA1 IP-MS, tau KO 1 cortex
[11] = biological target: Nucleolysin TIA-1 (endogenous mouse TIA1) (mouse) (UniProt P52912); assay: TIA1 IP-MS, WT1 cortex
[12] = biological target: Nucleolysin TIA-1 (endogenous mouse TIA1) (mouse) (UniProt P52912); assay: TIA1 IP-MS, tau KO 3 cortex
[13] = biological target: Nucleolysin TIA-1 (endogenous mouse TIA1) (mouse) (UniProt P52912); assay: TIA1 IP-MS, WT3 cortex
[14] = biological target: microtubules (mouse brain); assay: microtubule pelleting in RAB buffer / immunoblot, mouse cortex

Chain of UniProt P52912 (P52912 whole entry): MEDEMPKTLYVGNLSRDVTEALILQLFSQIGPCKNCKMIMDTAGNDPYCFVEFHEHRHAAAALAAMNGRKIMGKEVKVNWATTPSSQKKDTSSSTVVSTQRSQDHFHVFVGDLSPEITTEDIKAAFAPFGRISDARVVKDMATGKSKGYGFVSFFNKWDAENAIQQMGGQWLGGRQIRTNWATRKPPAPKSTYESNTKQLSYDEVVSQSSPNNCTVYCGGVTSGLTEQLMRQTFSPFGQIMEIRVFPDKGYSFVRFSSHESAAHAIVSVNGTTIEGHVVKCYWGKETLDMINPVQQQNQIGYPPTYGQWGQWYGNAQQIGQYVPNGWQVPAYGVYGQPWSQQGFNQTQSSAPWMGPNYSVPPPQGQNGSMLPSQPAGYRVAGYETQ

Compound: O=C1Nc2ccc3ncsc3c2/C1=C/c1cnc[nH]1 [C16]
tau-mediated SG formation (SG number) [1]: strongly inhibited; also recorded: Inhibition

Compound: Cn1cc(-c2ccc3c(c2)CCN3C(=O)Cc2cccc(C(F)(F)F)c2)c2c(N)ncnc21 [GSK2606414]
tau-mediated SG formation (SG number) [1]: strongly inhibited; also recorded: Inhibition

Compound: CC(C)C[C@@H](C=O)NC(=O)[C@H](CC(C)C)NC(=O)[C@H](CC(C)C)NC(=O)OCc1ccccc1 [MG132] (Cbz-Leu-Leu-Leu-aldehyde)
decreases in tau associated with TIA1 over-expression [2]: neither MG132 nor chloroquine prevented decreases in tau

Compound: CC(C)(C)n1nc(-c2ccc(Cl)cc2)c2c(N)ncnc21 [PP2]
formation of granules positive for TIA1 and phospho-tau (SGs and tau granules) [3]: inhibition of SGs and tau granules

Compound: C[S+]([O-])c1ccc(-c2nc(-c3ccncc3)c(-c3ccc(F)cc3)[nH]2)cc1 (centres unmarked) [SB203580]
SG inhibition, comparison among the kinase inhibitors [3]: strongest SG inhibition
formation of granules positive for TIA1 and phospho-tau (SGs and tau granules) [3]: Inhibition

Compound: Cn1cc(-c2[nH][nH]c(=O)c2-c2cn(C)c3ccccc23)c2ccccc21 [XXVI]
formation of granules positive for TIA1 and phospho-tau (SGs and tau granules) [3]: inhibition of SGs and tau granules

Compound: CCN(CC)CCCC(C)Nc1ccnc2cc(Cl)ccc12 (centres unmarked) [chloroquine]
decreases in tau associated with TIA1 over-expression [2]: neither MG132 nor chloroquine prevented decreases in tau

Compound: C[C@@H]1C[C@@H]([C@H](O)CC2CC(=O)NC(=O)C2)C(=O)[C@@H](C)C1 [cycloheximide]
dendrite length [4]: did not affect dendrite length
formation of tau/SG complexes (tau+ SGs) ([5]; HT22 cells over-expressing TIA1 and WT or P301L tau, arsenite, cycloheximide 10 μg/ml): prevented formation of the tau/SG complexes; also recorded: reversed
formation of tau granules [5]: prevented formation of tau granules
tau granules in dendritic processes (Tau13, MAP2 imaging) [6]: spread diffusely with only small, less defined granules apparent

Compound: COc1ccc(C[C@H](N)C(=O)N[C@H]2[C@@H](O)[C@H](n3cnc4c(N(C)C)ncnc43)O[C@@H]2CO)cc1 [puromycin]
dendrite length [4]: potentiated the decrease in dendritic length
formation of tau granules [5]: stimulated formation of tau granules
tau granules in dendritic processes (Tau13, MAP2 imaging) [6]: larger and more abundant tau granules

levels of cleaved caspase-3 (caspase cleavage) [7]: potentiated
Compound: O=C(/C=C/c1ccccc1)NC(NC(=S)Nc1cccc2cccnc12)C(Cl)(Cl)Cl (centres unmarked) [salubrinal]
SG levels ([5]; HT22 cells expressing tau, salubrinal 25 uM): enhanced SG levels
number of SGs ([5]; HT22 cells, P301L, P301L PMIM or P301L PNULL tau ± TIA1-RFP, salubrinal 25 μM): increased the number of SGs in all conditions

total ion current (normalized to TIA1 = 1000) [8]: 30.3
total ion current (normalized to TIA1 = 1000) [9]: 101
total ion current (normalized to TIA1 = 1000) [10]: 0
total ion current (normalized to TIA1 = 1000) [11]: 0
total ion current (normalized to TIA1 = 1000) [12]: 0
total ion current (normalized to TIA1 = 1000) [13]: 57.6
Compound: V-type proton ATPase subunit H (from UniProt Q8BVE3 1-483)

total ion current (normalized to TIA1 = 1000) [8]: 64.5
total ion current (normalized to TIA1 = 1000) [9]: 141
total ion current (normalized to TIA1 = 1000) [10]: 130
total ion current (normalized to TIA1 = 1000) [11]: 0
total ion current (normalized to TIA1 = 1000) [12]: 0
total ion current (normalized to TIA1 = 1000) [13]: 0
Compound: Vesicular glutamate transporter 1 (from UniProt Q3TXX4 1-560)

Compound: alkylbenzyldimethyammonium chloride
formation of granules positive for TIA1 and phospho-tau (SGs and tau granules) [3]: inhibition of SGs and tau granules

fold increase in the ratio of MT-bound (P) to unbound (S) tau, P301S TIA1+/- against P301S TIA1+/+ [14]: 3 fold
Compound: human 1N4R tau with the P301S mutation (PS19 transgene) (from UniProt P10636 2-412)
